According to patent publication US20260274829A1, “NEW E3 UBIQUITIN LIGASE LIGAND, PROTEIN DEGRADATION AGENT AND USE THEREOF” (GLUETACS THERAPEUTICS (SHANGHAI) CO., LTD., priority 2023, published 2026):

Tests used:
Type in all cases: cell-based
[1] = target: T1, WEE1 (Homo sapiens, UniProt P30291+Q96SW2); assay: Western blot degradation of WEE1 in hPBMC
T1 construct: endogenous in cells; host or cells: hPBMC
Protocol: (§1) Conventional Western blot assay was performed to evaluate the effects of the compounds of the present disclosure on the expression of target proteins in cells.
(§2) • (1) Cell Seeding and Protein Harvesting: The selected cells were processed according to the cell seeding procedure and protein harvesting procedure in Table III-2.
(§3) • (2) To the collected supernatant, 5×SDS sample loading buffer was added, followed by denaturation at 95° C. for 5 minutes. The denatured samples were then separated by SDS-PAGE electrophoresis on a polyacrylamide gel. Proteins were transferred to a nitrocellulose membrane ([…] NC membrane), blocked with blocking buffer at room temperature for 1 hour, and subjected to antibody incubation and development procedures according to the antibody manufacturer's instructions (Cell Signaling Technology).
(§4) Half-Maximal Degradation Concentration value (the drug concentration required for degrading proteins by 50%, abbreviated as DC50) reads method: comparing the grayscale values of Western blot bands from drug-treated samples with those from blank DMSO-treated controls, and identifying the drug concentration range at which the grayscale value is half that of the DMSO-treated control bands.
(§5) DC50 values can be calculated using ImageJ software to measure grayscale values of Western blot bands from drug-treated samples. The concentration-response curve is fitted to estimate the drug concentration corresponding to half the grayscale value.
(§6) Target protein remaining (0%) refers to the percentage of target protein remaining in hPBMC cells after treatment with protein degrader compounds.
(§7) Calculation method for target protein remaining (0%): Use ImageJ software to measure grayscale values of Western blot bands from drug (protein degrader)-treated samples. The grayscale value of drug-treated bands is divided by that of internal control protein bands, and the resulting quotient is normalized to obtain the relative percentage of remaining target protein after protein degrader treatment.

[2] = target: T2, GSPT1 (Homo sapiens, UniProt P15170+Q96SW2); assay: Western blot degradation of GSPT1 in hPBMC
T2 construct: endogenous in cells; host or cells: hPBMC
Protocol: as §1, §2, §3, §4, §5, §6, §7

[3] = target: T3, IKZF3 (Homo sapiens, UniProt Q96SW2+Q9UKT9); assay: Western blot degradation of IKZF3 in hPBMC
T3 construct: endogenous in cells; host or cells: hPBMC
Protocol: as §1, §2, §3, §4, §5, §6, §7

[4] = target: T4, IKZF2 (Homo sapiens, UniProt Q96SW2+Q9UKS7); assay: Western blot degradation of IKZF2 in hPBMC
T4 construct: endogenous in cells; host or cells: hPBMC
Protocol: as §1, §2, §3, §4, §5, §6, §7

[5] = target: T5, CK1a (Homo sapiens, UniProt P48729+Q96SW2); assay: Western blot degradation of CK1a in hPBMC
T5 construct: endogenous in cells; host or cells: hPBMC
Protocol: as §1, §2, §3, §4, §5, §6, §7

[6] = target: T6, IKZF1 (Homo sapiens, UniProt Q13422+Q96SW2); assay: Western blot degradation of IKZF1 in hPBMC
T6 construct: endogenous in cells; host or cells: hPBMC
Protocol: as §1, §2, §3, §4, §5, §6, §7

T6 sequence (Q13422 whole entry): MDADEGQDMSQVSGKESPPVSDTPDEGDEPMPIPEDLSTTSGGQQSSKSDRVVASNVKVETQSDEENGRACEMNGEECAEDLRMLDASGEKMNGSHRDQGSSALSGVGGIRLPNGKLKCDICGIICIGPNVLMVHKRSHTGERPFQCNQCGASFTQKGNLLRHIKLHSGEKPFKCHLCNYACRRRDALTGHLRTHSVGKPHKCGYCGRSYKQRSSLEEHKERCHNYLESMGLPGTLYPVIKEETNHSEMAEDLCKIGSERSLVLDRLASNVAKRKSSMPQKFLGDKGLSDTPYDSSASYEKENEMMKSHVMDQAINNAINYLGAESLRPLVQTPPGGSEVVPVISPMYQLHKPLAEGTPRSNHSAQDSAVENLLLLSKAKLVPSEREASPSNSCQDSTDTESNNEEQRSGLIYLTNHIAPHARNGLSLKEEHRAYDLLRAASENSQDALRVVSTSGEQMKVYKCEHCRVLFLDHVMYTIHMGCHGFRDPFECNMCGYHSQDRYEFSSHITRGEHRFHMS
T6 sequence (Q96SW2 whole entry): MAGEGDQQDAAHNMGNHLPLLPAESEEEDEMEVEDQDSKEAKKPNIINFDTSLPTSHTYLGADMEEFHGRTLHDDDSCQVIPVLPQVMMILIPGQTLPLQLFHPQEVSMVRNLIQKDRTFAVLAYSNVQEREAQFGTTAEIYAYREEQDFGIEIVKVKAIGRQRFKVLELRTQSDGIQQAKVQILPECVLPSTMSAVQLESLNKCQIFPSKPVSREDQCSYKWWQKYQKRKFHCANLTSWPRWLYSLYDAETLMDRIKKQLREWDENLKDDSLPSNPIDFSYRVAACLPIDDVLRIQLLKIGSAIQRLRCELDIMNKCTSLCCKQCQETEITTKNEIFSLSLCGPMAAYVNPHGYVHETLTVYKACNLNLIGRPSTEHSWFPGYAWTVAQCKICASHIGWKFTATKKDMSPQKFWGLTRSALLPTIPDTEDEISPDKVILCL
T6 sequence (Q16531 whole entry partner): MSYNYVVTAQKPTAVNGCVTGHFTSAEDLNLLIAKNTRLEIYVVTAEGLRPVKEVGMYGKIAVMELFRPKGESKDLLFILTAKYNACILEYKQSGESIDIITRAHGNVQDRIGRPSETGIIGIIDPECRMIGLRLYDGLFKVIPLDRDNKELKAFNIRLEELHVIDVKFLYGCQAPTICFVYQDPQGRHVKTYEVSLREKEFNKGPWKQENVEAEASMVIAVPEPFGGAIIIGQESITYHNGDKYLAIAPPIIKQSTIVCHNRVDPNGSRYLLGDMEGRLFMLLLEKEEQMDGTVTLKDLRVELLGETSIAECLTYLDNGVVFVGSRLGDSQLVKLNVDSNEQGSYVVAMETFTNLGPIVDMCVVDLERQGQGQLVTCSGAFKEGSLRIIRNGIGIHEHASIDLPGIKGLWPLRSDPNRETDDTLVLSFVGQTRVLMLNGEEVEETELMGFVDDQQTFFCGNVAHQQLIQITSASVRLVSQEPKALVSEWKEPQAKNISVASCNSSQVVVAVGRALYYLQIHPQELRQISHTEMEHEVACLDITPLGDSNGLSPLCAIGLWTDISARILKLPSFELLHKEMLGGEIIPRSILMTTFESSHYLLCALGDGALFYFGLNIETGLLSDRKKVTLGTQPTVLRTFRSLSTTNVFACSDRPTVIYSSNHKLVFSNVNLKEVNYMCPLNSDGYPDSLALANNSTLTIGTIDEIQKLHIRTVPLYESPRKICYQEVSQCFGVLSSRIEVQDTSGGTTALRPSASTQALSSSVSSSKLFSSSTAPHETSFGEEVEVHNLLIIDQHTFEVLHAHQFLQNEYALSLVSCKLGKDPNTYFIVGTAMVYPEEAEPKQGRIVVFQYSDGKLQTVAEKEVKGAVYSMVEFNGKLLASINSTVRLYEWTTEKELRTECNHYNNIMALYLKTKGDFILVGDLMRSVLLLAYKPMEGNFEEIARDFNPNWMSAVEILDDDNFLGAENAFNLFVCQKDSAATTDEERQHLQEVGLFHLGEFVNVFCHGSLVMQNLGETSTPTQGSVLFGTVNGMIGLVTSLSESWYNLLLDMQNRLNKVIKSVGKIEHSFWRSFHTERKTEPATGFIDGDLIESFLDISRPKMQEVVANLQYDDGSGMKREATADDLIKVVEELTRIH
T1 sequence (P30291 whole entry): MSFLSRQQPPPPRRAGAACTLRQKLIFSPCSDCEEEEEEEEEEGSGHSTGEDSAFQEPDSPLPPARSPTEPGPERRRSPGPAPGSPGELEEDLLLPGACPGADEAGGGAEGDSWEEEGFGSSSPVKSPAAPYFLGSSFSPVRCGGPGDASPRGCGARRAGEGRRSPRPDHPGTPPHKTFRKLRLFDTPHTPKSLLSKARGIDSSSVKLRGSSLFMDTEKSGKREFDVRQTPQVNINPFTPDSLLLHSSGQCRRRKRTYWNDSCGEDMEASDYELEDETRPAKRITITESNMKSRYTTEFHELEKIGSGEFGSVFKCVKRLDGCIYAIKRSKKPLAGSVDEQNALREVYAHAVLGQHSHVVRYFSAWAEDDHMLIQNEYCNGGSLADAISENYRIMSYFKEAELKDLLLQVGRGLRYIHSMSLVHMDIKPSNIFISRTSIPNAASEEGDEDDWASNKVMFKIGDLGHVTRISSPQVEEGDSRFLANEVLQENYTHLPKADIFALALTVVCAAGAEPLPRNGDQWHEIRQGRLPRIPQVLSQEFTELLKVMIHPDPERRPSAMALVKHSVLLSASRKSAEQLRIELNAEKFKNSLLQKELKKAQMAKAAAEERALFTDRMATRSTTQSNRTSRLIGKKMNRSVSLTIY
T1 sequence (Q96SW2 whole entry): as the sequence (Q96SW2 whole entry) above
T1 sequence (Q16531 whole entry partner): as the sequence (Q16531 whole entry partner) above
T4 sequence (Q9UKS7 whole entry): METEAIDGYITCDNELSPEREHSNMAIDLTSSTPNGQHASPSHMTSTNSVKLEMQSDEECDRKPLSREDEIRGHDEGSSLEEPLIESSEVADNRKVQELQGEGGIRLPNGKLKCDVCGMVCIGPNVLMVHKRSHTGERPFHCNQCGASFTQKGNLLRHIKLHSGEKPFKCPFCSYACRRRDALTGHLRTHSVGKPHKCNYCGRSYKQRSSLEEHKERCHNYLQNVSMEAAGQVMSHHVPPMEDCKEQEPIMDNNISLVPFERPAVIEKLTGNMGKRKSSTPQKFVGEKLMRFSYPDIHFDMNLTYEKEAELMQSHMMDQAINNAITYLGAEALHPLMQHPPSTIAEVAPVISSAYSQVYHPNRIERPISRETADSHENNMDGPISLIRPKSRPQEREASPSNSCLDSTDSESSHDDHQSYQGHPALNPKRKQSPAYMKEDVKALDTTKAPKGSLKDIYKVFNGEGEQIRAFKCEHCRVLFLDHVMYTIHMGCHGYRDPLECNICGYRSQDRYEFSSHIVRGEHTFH
T4 sequence (Q96SW2 whole entry): as the sequence (Q96SW2 whole entry) above
T4 sequence (Q16531 whole entry partner): as the sequence (Q16531 whole entry partner) above
T5 sequence (P48729 whole entry): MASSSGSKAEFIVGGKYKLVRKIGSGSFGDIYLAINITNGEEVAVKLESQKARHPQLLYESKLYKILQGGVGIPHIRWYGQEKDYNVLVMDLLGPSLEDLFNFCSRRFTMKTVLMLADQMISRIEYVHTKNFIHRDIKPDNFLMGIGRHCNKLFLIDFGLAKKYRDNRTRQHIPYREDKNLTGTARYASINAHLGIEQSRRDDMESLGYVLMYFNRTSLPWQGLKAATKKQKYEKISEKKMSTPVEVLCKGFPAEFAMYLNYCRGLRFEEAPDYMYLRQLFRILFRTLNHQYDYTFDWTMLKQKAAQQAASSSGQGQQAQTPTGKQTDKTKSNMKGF
T5 sequence (Q96SW2 whole entry): as the sequence (Q96SW2 whole entry) above
T5 sequence (Q16531 whole entry partner): as the sequence (Q16531 whole entry partner) above
T3 sequence (Q9UKT9 whole entry): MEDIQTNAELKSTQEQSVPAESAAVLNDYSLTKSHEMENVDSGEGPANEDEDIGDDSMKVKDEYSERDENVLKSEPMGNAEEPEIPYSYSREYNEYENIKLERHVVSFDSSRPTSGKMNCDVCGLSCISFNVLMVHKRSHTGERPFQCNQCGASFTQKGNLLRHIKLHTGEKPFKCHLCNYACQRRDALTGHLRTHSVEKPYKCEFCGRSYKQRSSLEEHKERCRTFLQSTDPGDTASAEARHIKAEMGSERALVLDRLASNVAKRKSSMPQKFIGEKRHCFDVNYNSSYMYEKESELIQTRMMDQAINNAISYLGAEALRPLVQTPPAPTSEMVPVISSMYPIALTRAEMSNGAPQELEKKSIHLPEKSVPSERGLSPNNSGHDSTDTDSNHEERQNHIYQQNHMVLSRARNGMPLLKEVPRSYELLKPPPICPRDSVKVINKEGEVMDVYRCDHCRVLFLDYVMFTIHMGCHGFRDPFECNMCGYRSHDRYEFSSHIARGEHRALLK
T3 sequence (Q96SW2 whole entry): as the sequence (Q96SW2 whole entry) above
T3 sequence (Q16531 whole entry partner): as the sequence (Q16531 whole entry partner) above

SMILES	Degradation of substrate protein WEE1 (substrate protein remaining %) [1]	Degradation of substrate protein GSPT1 (substrate protein remaining %) [2]	Degradation of substrate protein IKZF3 (substrate protein remaining %) [3]	Degradation of substrate protein IKZF2 (substrate protein remaining %) [4]	Degradation of substrate protein CK1a (substrate protein remaining %) [5]	Degradation of substrate protein IKZF1 (substrate protein remaining %) [6]
O=C1CCN(c2cnc(CO)cn2)C(=O)N1 [GT-07634, 1-(5-(hydroxymethyl)pyrazin-2-yl)dihydropyrimidine-2,4(1H,3H)-dione]	A (A is defined as 0% ≤ substrate protein remaining % ≤ 80%)	B (B is defined as substrate protein remaining % > 80%)	A (A is defined as 0% ≤ substrate protein remaining % ≤ 80%)	A (A is defined as 0% ≤ substrate protein remaining % ≤ 80%)	A (A is defined as 0% ≤ substrate protein remaining % ≤ 80%)	A (A is defined as 0% ≤ substrate protein remaining % ≤ 80%)
O=C1CCC(c2ncc(CO)cc2F)C(=O)N1 (stereo not drawn) [GT-07443, 3-(3-fluoro-5-(hydroxymethyl)pyridin-2-yl)piperidine-2,6-dione]	A (A is defined as 0% ≤ substrate protein remaining % ≤ 80%)	A (A is defined as 0% ≤ substrate protein remaining % ≤ 80%)	B (B is defined as substrate protein remaining % > 80%)	A (A is defined as 0% ≤ substrate protein remaining % ≤ 80%)	A (A is defined as 0% ≤ substrate protein remaining % ≤ 80%)	A (A is defined as 0% ≤ substrate protein remaining % ≤ 80%)
O=C1CCC(c2ccc(CO)nc2F)C(=O)N1 (stereo not drawn) [GT-07558, 3-(2-fluoro-6-(hydroxymethyl)pyridin-3-yl)piperidine-2,6-dione]	A (A is defined as 0% ≤ substrate protein remaining % ≤ 80%)	B (B is defined as substrate protein remaining % > 80%)	B (B is defined as substrate protein remaining % > 80%)	B (B is defined as substrate protein remaining % > 80%)	A (A is defined as 0% ≤ substrate protein remaining % ≤ 80%)	A (A is defined as 0% ≤ substrate protein remaining % ≤ 80%)
O=Cc1cncnc1NC1CCC(=O)NC1=O (stereo not drawn) [GT-07805, 4-((2,6-dioxopiperidin-3-yl)amino)pyrimidine-5-carbaldehyde]	B (B is defined as substrate protein remaining % > 80%)	B (B is defined as substrate protein remaining % > 80%)	A (A is defined as 0% ≤ substrate protein remaining % ≤ 80%)	A (A is defined as 0% ≤ substrate protein remaining % ≤ 80%)	B (B is defined as substrate protein remaining % > 80%)	A (A is defined as 0% ≤ substrate protein remaining % ≤ 80%)
O=Cc1ccncc1NC1CCC(=O)NC1=O (stereo not drawn) [GT-07804, 3-((2,6-dioxopiperidin-3-yl)amino)isonicotinaldehyde]	B (B is defined as substrate protein remaining % > 80%)	B (B is defined as substrate protein remaining % > 80%)	A (A is defined as 0% ≤ substrate protein remaining % ≤ 80%)	A (A is defined as 0% ≤ substrate protein remaining % ≤ 80%)	B (B is defined as substrate protein remaining % > 80%)	B (B is defined as substrate protein remaining % > 80%)
O=C1CCC(Nc2ccc(CO)nc2)C(=O)N1 (stereo not drawn) [GT-07446, 3-((6-(hydroxymethyl)pyridin-3-yl)amino)piperidine-2,6-dione]	A (A is defined as 0% ≤ substrate protein remaining % ≤ 80%)	A (A is defined as 0% ≤ substrate protein remaining % ≤ 80%)	A (A is defined as 0% ≤ substrate protein remaining % ≤ 80%)	A (A is defined as 0% ≤ substrate protein remaining % ≤ 80%)	A (A is defined as 0% ≤ substrate protein remaining % ≤ 80%)	A (A is defined as 0% ≤ substrate protein remaining % ≤ 80%)
O=Cc1cccnc1NC1CCC(=O)NC1=O (stereo not drawn) [GT-07447, 2-((2,6-dioxopiperidin-3-yl)amino)nicotinaldehyde]	A (A is defined as 0% ≤ substrate protein remaining % ≤ 80%)	A (A is defined as 0% ≤ substrate protein remaining % ≤ 80%)	A (A is defined as 0% ≤ substrate protein remaining % ≤ 80%)	A (A is defined as 0% ≤ substrate protein remaining % ≤ 80%)	A (A is defined as 0% ≤ substrate protein remaining % ≤ 80%)	A (A is defined as 0% ≤ substrate protein remaining % ≤ 80%)
O=C1CCN(c2cnc(CCl)c(F)c2)C(=O)N1 [GT-07557, 1-(6-(chloromethyl)-5-fluoropyridin-3-yl)dihydropyrimidine-2,4(1H,3H)-dione]	A (A is defined as 0% ≤ substrate protein remaining % ≤ 80%)	B (B is defined as substrate protein remaining % > 80%)	B (B is defined as substrate protein remaining % > 80%)	B (B is defined as substrate protein remaining % > 80%)	A (A is defined as 0% ≤ substrate protein remaining % ≤ 80%)	A (A is defined as 0% ≤ substrate protein remaining % ≤ 80%)
NCc1ccc(N2CCC(=O)NC2=O)cn1 [GT-07048, 1-(6-(aminomethyl)pyridin-3-yl)dihydropyrimidine-2,4(1H,3H)-dione]	B (B is defined as substrate protein remaining % > 80%)	A (A is defined as 0% ≤ substrate protein remaining % ≤ 80%)	A (A is defined as 0% ≤ substrate protein remaining % ≤ 80%)	A (A is defined as 0% ≤ substrate protein remaining % ≤ 80%)	A (A is defined as 0% ≤ substrate protein remaining % ≤ 80%)	A (A is defined as 0% ≤ substrate protein remaining % ≤ 80%)
NCc1cc(N2CCC(=O)NC2=O)ncc1F [GT-07369, 1-(4-(aminomethyl)-5-fluoropyridin-2-yl)dihydropyrimidine-2,4(1H,3H)-dione]	B (B is defined as substrate protein remaining % > 80%)	A (A is defined as 0% ≤ substrate protein remaining % ≤ 80%)	B (B is defined as substrate protein remaining % > 80%)	B (B is defined as substrate protein remaining % > 80%)	A (A is defined as 0% ≤ substrate protein remaining % ≤ 80%)	B (B is defined as substrate protein remaining % > 80%)
O=C1CCC(Nc2ncccc2CO)C(=O)N1 (stereo not drawn) [GT-07197, 3-((3-(hydroxymethyl)pyridin-2-yl)amino)piperidine-2,6-dione]	B (B is defined as substrate protein remaining % > 80%)	A (A is defined as 0% ≤ substrate protein remaining % ≤ 80%)	B (B is defined as substrate protein remaining % > 80%)	B (B is defined as substrate protein remaining % > 80%)	A (A is defined as 0% ≤ substrate protein remaining % ≤ 80%)	B (B is defined as substrate protein remaining % > 80%)
